Literature values in patent US20260206768A1, “COMBINATION OF VARIOUS NITROGEN FIXING BACTERIA WITH VARIOUS BIOLOGICAL PRODUCTS TO ACHIEVE SYNERGISTIC EFFECTS” (Pivot Bio, Inc., priority 2022, published 2026).
Peptide text beside a SMILES is read from it.

Conditions: for Useful pH range: buffering range

Compound	pKa at 25° C.	Useful pH range
O=S(=O)(O)CCCN1CCN(CCO)CC1 [EPPS]	8	7.3-8.7
O=S(=O)(O)CCN(CCO)CCO [BES]	7.09	6.4-7.8
O=S(=O)(O)CCCCN1CCN(CCO)CC1 [HEPBS]	8.3	7.6-9.0
O=S(=O)(O)CCCNC(CO)(CO)CO [TAPS, [tris(hydroxymethyl)methylamino]propanesulfonic acid]		7.7-9.1
O=S(=O)(O)CCN1CCN(CCS(=O)(=O)O)CC1 [PIPES, piperazine-N,N′-bis(2-ethanesulfonic acid)]	6.76	6.1-7.5
CC(=O)O [Acetic acid, Ethanoic acid]		3.8-5.8
NC(=O)CN(CC(=O)O)CC(=O)O [ADA]	6.59	6.0-7.2
OCC(CO)(CO)NCCCNC(CO)(CO)CO [Bis-Tris Propane]		6.3-9.5
O=C(O)CNC(CO)(CO)CO [Tricine, N-[tris(hydroxymethyl)methyl]glycine]		7.4-8.8
CC(N)(CO)CO [AMPD]	8.8	7.8-9.7
O=S(=O)(O)CCCCNC(CO)(CO)CO [TABS]	8.9	8.2-9.6
NCC(=O)NCC(=O)O [Gly-Gly] (H-Gly-Gly-OH)		7.5-8.9
O=S(=O)(O)CCCCNC1CCCCC1 [CABS]	10.7	10.0-11.4
O=S(=O)(O)CC(O)CNC(CO)(CO)CO (centres unmarked) [TAPSO, 3-[N-tris(hydroxymethyl)methylamino]-2-hydroxypropanesulfonic acid]		7.0-8.2
O=S(=O)(O)CC(O)CN(CCO)CCO (centres unmarked) [DIPSO]	7.6	7.0-8.2
O=S(=O)(O)CCNC1CCCCC1 [CHES, N-Cyclohexyl-2-aminoethanesulfonic acid]		8.3-10.3
O=P([O-])([O-])O.[K+].[K+] [K2HPO4, dipotassium phosphate]		8.7-9.4
O=S(=O)(O)CCCNC1CCCCC1 [CAPS]	10.4	9.7-11.1
O=C(O)CC(O)(CC(=O)O)C(=O)O [Citric acid, 2-Hydroxypropane-1,2,3-tricarboxylic acid]		2.1-7.4
OCCN(CCO)CCO [TEA]		7.3-8.3
O=P([O-])([O-])[O-].[K+].[K+].[K+] [K3PO4]		11.5-12.3
NC(=O)CNCCS(=O)(=O)O [ACES]	6.78	6.1-7.5
O=S(=O)(O)CC(O)CNC1CCCCC1 (centres unmarked) [CAPSO]		8.9-10.3
O=S(=O)(O)CCNC(CO)(CO)CO [TES, 2-[[1,3-dihydroxy-2-(hydroxymethyl)propan-2-yl]amino]ethanesulfonic acid]		6.8-8.2
O=S(=O)(O)CCCCN1CCOCC1 [MOBS]	7.6	6.9-8.3
O=S(=O)(O)CC(O)CN1CCN(CC(O)CS(=O)(=O)O)CC1 (centres unmarked) [POPSO]	7.8	7.2-8.5
OB(O)O [Boric acid]		8.25-10.25
CC(C)(CO)NCC(O)CS(=O)(=O)O (centres unmarked) [AMPSO]	9	8.3-9.7
CC(C)(N)CO [AMP]	9.7	9.0-10.5
